Measurements published in ChEMBL document CHEMBL1124880 (J Med Chem, 1990).

Legend:
Adenosine A2 receptor [1] = molecular target: T1, Adenosine A2 receptor (Rattus norvegicus, UniProt P29276+P30543)
Rattus norvegicus [2] = species on record: Rattus norvegicus; assay: Minimal effective dose in an rat anti-immobility effect using behavioral despair test; type: functional; settings: read-out: MED
Rattus norvegicus [3] = species on record: Rattus norvegicus; assay: Evaluated for Ca++ independent phosphodiesterase activity.; type: functional
Phosphodiesterase 1 = Phosphodiesterase 1 (Rattus norvegicus, UniProt Q63421+Q9EPR9+Q01066); assay: Evaluated for Ca++ dependent phosphodiesterase activity.; type: functional
Adenosine receptor A1 [4] = molecular target: T2, Adenosine receptor A1 (Rattus norvegicus, UniProt P25099); assay: Binding affinity towards the adenosine A1 receptor in cerebral cortices of Sprague-Dawley male rats using [3H]CHA as radioligand.
T2 sequence (P25099 whole entry): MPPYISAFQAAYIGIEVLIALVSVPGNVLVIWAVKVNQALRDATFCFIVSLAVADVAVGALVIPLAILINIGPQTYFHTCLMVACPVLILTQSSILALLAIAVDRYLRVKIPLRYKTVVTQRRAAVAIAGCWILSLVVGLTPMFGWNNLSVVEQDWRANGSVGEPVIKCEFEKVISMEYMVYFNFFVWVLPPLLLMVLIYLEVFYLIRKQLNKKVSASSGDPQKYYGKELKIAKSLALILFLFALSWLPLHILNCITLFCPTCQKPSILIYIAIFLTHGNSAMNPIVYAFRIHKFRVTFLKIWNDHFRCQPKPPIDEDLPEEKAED

Adenosine receptor A1 [5] = molecular target: T2, Adenosine receptor A1; assay: Evaluated for the binding affinity towards the Adenosine A1 receptor in cerebral cortices of Sprague-Dawley male rats using [3H]CHA as radioligand.
Adenosine A2 receptor [6] = molecular target: T1, Adenosine A2 receptor; assay: Binding affinity for Adenosine A2 receptor in corpora striata of rats using [3H]NECA; type: protein assay
Adenosine receptor A1 [7] = molecular target: T2, Adenosine receptor A1
Adenosine receptor A1 [8] = molecular target: T2, Adenosine receptor A1; assay: Binding affinity for Adenosine A1 receptor in cerebral cortices of Sprague-Dawley male rats using [3H]-CHA
[9] = molecular target: Adenosine receptor A1 (Rattus norvegicus) (UniProt P25099); assay: Binding affinity for Adenosine A1 receptor in cerebral cortices of Sprague-Dawley male rats using [3H]CHA

SMILES | IC50 (Adenosine A2 receptor [1]) | IC50 (Rattus norvegicus [3]) | IC50 (Phosphodiesterase 1) | IC50 (Adenosine receptor A1 [4]) | IC50 (Adenosine receptor A1 [5]) | Ki (Adenosine A2 receptor [6]) | Ki (Adenosine receptor A1 [7]) | IC50 (Adenosine receptor A1 [8]) | IC50 [9] | minimal effective dose (Rattus norvegicus [2])
FC(F)(F)c1nnc2c(NC3CCCCC3)nc3ccc(Cl)cc3n12 | > 100000 nM | > 10000 nM | > 10 µM | 28 nM | – | – | – | – | – | > 32 mg/kg
Fc1ccc2nc(NC3CCCCC3)c3nnc(C(F)(F)F)n3c2c1 | 60000 nM | 6000 nM | > 10 µM | 32 nM | – | – | – | – | – | > 32 mg/kg
COc1ccc(C2CNC(=O)C2)cc1OC1CCCC1 (stereo not given) [ROLIPRAM] | > 100000 nM | 250 nM | > 100 µM | > 100000 nM | – | – | – | – | – | > 32 mg/kg
Clc1ccc2nc(N3CCNCC3)c3nnc(-c4ccccc4)n3c2c1 | – | 10000 nM | >> 10 uM | – | – | – | – | – | – | > 32 mg/kg
CCc1nnc2c(N(CC)CC)nc3ccccc3n12 | – | 3700 nM | 0.1 µM | 7400 nM | – | – | – | – | – | 3.2 mg/kg
CCNc1nc2cc(Cl)ccc2n2c(CC)nnc12 | – | 200 nM | > 10 µM | – | – | – | – | – | – | 3.2 mg/kg
CC(C)Nc1nc2ccc(Cl)cc2n2c(-c3ccccc3)nnc12 | > 100000 nM | > 10000 nM | > 10 µM | 3200 nM | – | – | – | – | – | < 32 mg/kg
CCNc1nc2ccc(OC)cc2n2c(CC)nnc12 | 4500 nM | – | – | 710 nM | – | – | – | – | – | > 32 mg/kg
CCc1nnc2c(NC3CCCC3)nc3ccc(Cl)cc3n12 | 890 nM | – | – | 20 nM | – | – | – | – | – | > 32 mg/kg
CCNc1nc2ccc(F)cc2n2c(C(F)(F)F)nnc12 | 14000 nM | – | – | 230 nM | – | – | – | – | – | 3.2 mg/kg
CCc1nnc2c(NC(C)C)nc3cc(F)ccc3n12 | 48000 nM | – | – | 440 nM | – | – | – | – | – | ≥ 32 mg/kg
Nc1nc2ccc(F)cc2n2cnnc12 | 1000 nM | 4000 nM | > 10 µM | 2900 nM | – | – | – | – | – | ≤ 32 mg/kg
Nc1nc2ccc(Cl)cc2n2cnnc12 | >= 1 uM | – | – | 3400 nM | – | – | – | – | – | 10 mg/kg
CCc1nnc2c(NC(C)C)nc3ccc(F)cc3n12 | 3900 nM | – | – | 180 nM | – | – | – | – | – | 3.2 mg/kg
CCc1nnc2c(NC(C)C)nc3ccc(Cl)cc3n12 | 1700 nM | 500 nM | 2 µM | 60 nM | – | – | – | – | – | ≤ 3.2 mg/kg
CCN(CC)c1nc2ccccc2n2cnnc12 | 42000 nM | 3000 nM | 1.2 µM | 27000 nM | – | – | – | – | – | 10 mg/kg
CCc1nnc2c(N)nc3cc(Cl)c(Cl)cc3n12 | 23 nM | – | – | 110 nM | – | – | – | – | – | 3.2 mg/kg
Nc1nc2ccc(Cl)cc2n2c(-c3ccc(Cl)cc3)nnc12 | 33 nM | – | – | – | – | – | – | 510 nM | – | –
CC(C)Nc1nc2ccc(Cl)cc2n2c(C(F)(F)C(F)(F)F)nnc12 | 3100 nM | – | – | 24 nM | – | – | – | – | – | 32 mg/kg
CCN(CC)c1nc2ccc(Cl)cc2n2c(C(F)(F)F)nnc12 | > 100000 nM | – | – | > 100000 nM | – | – | – | – | – | ≤ 32 mg/kg
CCc1nnc2c(N)nc3cc(Cl)ccc3n12 | 29 nM | – | – | 75 nM | – | – | – | – | – | ≤ 3.2 mg/kg
c1ccc2c(c1)nc(N1CCNCC1)c1nncn12 | – | 7000 nM | 3 µM | > 10000 nM | – | – | – | – | – | > 32 mg/kg
CC(C)Nc1nc2ccccc2n2cnnc12 | 17000 nM | – | – | 4100 nM | – | – | – | – | – | 3.2 mg/kg
Nc1nc2ccc(F)cc2n2c(C(F)(F)F)nnc12 | 100 nM | – | – | 290 nM | – | – | – | – | – | 1 mg/kg

Further lines, with some results ahead:

IC50 (Adenosine A2 receptor [1]) | IC50 (Rattus norvegicus [3]) | IC50 (Phosphodiesterase 1) | IC50 (Adenosine receptor A1 [4]) | IC50 (Adenosine receptor A1 [5]) | Ki (Adenosine A2 receptor [6]) | Ki (Adenosine receptor A1 [7]) | IC50 (Adenosine receptor A1 [8]) | IC50 [9] | SMILES | minimal effective dose (Rattus norvegicus [2])
170 nM | 40000 nM | >> 10 uM | 580 nM | – | – | – | – | – | CCc1nnc2c(N)nc3cc(F)ccc3n12 | 3.2 mg/kg
62 nM | 12000 nM | 2 µM | 430 nM | – | – | – | – | – | CCc1nnc2c(N)nc3ccccc3n12 | 3.2 mg/kg
9500 nM | 2500 nM | 20 µM | 1800 nM | – | – | – | – | – | CCNc1nc2ccccc2n2c(CC)nnc12 | 3.2 mg/kg
3900 nM | 370 nM | 24 µM | 57 nM | – | – | – | – | – | CC(C)Nc1nc2ccc(F)cc2n2c(C(F)(F)F)nnc12 | ≤ 3.2 mg/kg
6900 nM | 4500 nM | > 100 µM | 680 nM | – | – | – | – | – | CC(C)Nc1nc2ccc(F)cc2n2cnnc12 | ≤ 3.2 mg/kg
100 nM | > 10000 nM | >> 10 uM | 1400 nM | – | – | – | – | – | COc1ccc2c(c1)nc(N)c1nncn12 | 3.2 mg/kg
2300 nM | 1000 nM | 1 µM | 24 nM | – | – | – | – | – | CC(C)Nc1nc2ccc(Cl)cc2n2c(C(F)(F)F)nnc12 | ≤ 3.2 mg/kg
– | 170000 nM | 70 µM | – | – | – | – | – | – | Cn1c(=O)c2c(ncn2C)n(C)c1=O [CAFFEINE] | 3.2 mg/kg
2100 nM | – | – | 5.5 nM | – | – | – | – | – | FC(F)(F)c1nnc2c(NC3CCCC3)nc3ccc(Cl)cc3n12 | > 32 mg/kg
210 nM | – | – | 1200 nM | – | – | – | – | – | Nc1nc2cc(Cl)ccc2n2cnnc12 | ≤ 32 mg/kg
28 nM | – | – | 110 nM | – | – | – | – | – | CCc1nnc2c(N)nc3ccc(Cl)cc3n12 | ≤ 3.2 mg/kg
13000 nM | 3500 nM | 0.1 µM | 7000 nM | – | – | – | – | – | CC(C)Cn1c(=O)n(C)c(=O)c2nc[nH]c21 [ISOBUTYLMETHYLXANTHINE] | > 32 mg/kg
> 100000 nM | – | – | 680 nM | – | – | – | – | – | CCc1nnc2c(N[C@@H](C)Cc3ccccc3)nc3ccc(Cl)cc3n12 | > 32 mg/kg
26000 nM | – | – | 11000 nM | – | – | – | – | – | CCNc1nc2cc(F)ccc2n2cnnc12 | 32 mg/kg
13000 nM | 6000 nM | > 100 µM | 4500 nM | – | – | – | – | – | CC(C)Nc1nc2cc(F)ccc2n2cnnc12 | > 32 mg/kg
– | – | – | – | 6.5 nM | 50000 nM | 3 nM | – | – | OC[C@H]1O[C@@H](n2cnc3c(Nc4ccccc4)ncnc32)[C@H](O)[C@@H]1O [N6-PHENYLADENOSINE] | –
> 100000 nM | > 10000 nM | >> 10 uM | 6800 nM | – | – | – | – | – | CCc1nnc2c(NC(C)C)nc3c(Cl)cccc3n12 | ≤ 32 mg/kg
6400 nM | 300 nM | 3 µM | 660 nM | – | – | – | – | – | CCc1nnc2c(NC(C)C)nc3ccccc3n12 | 10 mg/kg
> 100000 nM | – | – | 380 nM | – | – | – | – | – | CCc1nnc2c(Nc3ccccc3)nc3ccc(Cl)cc3n12 | > 32 mg/kg
44 nM | 2000 nM | > 10 µM | 65 nM | – | – | – | – | – | Nc1nc2ccc(Cl)cc2n2c(C(F)(F)F)nnc12 | 3.2 mg/kg
– | – | – | – | 3700 nM | – | – | – | – | CC(C)Nc1ncnc2c1ncn2[C@@H]1O[C@H](CO)[C@@H](O)[C@H]1O | –
– | > 10000 nM | >> 10 uM | – | – | – | – | – | – | CCCN(CCC)c1nc2ccc(F)cc2n2c(C(F)(F)F)nnc12 | > 32 mg/kg
110000 nM | – | – | 29000 nM | – | – | – | – | – | CCNc1nc2ccccc2n2cnnc12 | 3.2 mg/kg
– | – | – | – | – | – | – | – | 12000 nM | CCc1nnc2c(N(C)C)nc3ccccc3n12 | ≤ 3.2 mg/kg
